Among the data in US8598217B2, “Imidazole derivatives and their use as modulators of cyclin dependent kinases” (Astex Therapeutics Ltd., priority 2009, dated 2013) are IC50 values, retold here.

As a reminder, the IC50 is the point on the concentration scale where inhibition reaches its midpoint.

This assay concerns the target CDK4/cyclin D1 (Homo sapiens (Human), UniProt P11802). Description: CDK4/cyclin D1 enzymatic activity assay (Protocol A, Lance TR-FRET). It counts as biochemical. The following applies: CDK4/cyclin D1, 175 nM pRb152, 3 μM ATP. The method, then:
A 384-well microtiter Lance TR-FRET (time-resolved-fluorescence energy transfer) endpoint assay was used for CDK4/cyclin D1 kinase activity measurements. The same assay was used for IC50 determination of small molecule inhibitors. In general, the kinase reactions were carried out in 30 μL volumes in the reaction solution containing the following: 2 μL compound (in 20% DMSO), 18 uL CDK4/cyclin D1 in Assay Buffer (50 mM HEPES, pH 7.5, 5 mM MgCl2, 2 mM MnCl2, 1 mM DTT, 0.05% BSA, 0.02% Tween-20), 10 μL of the mixture of pRb152 and ATP. The final reaction mixture contains compound (inhibitor) with the concentration varying from […], 2% DMSO, 0.3 nM CDK4/cyclin D1, 175 nM pRb152, and 3 μM ATP (Amersham Pharmacia, Cat. No. 27-2056-01). All reactions were run at room temperature in 384-well white flat-bottom OptiPlates (Perkin Elmer, Cat. No. 6007290) for 60 min then were quenched by the addition of 10 μL of 120 mM EDTA. The signals were captured by the addition of 40 μL of the Detection Solution containing the following: Detection Buffer (50 mM HEPES, pH 7.5, 30 mM EDTA, 0.1% Triton x-100, 0.05% BSA), 70 ng/mL anti-phospho-pRb(S780) (Cell Signaling Technology, Cat. No. 9307S), 1 nM Lance Eu-W1024-Rabbit anti-IgG (Perkin Elmer, Cat. No. AD0082), and 20 nM SureLight™ Allophycocyanin-Streptavidin (Perkin Elmer, Cat. No. CR130-100). The resulted solutions were incubated at room temperature for 2 hours before read on the Evision Multilabel Reader (Perkin Elmer, Envision 2102-0010). Note: IC50<0.005 nM or IC50>10 μM indicates the true IC50 is out of detection range.
CDK4/cyclin D1 recombinant protein used in the enzymatic activity assay was prepared by coexpressing pDEST10-CDK4 (N-terminal His6) and pFastBacDual-GST-hCyclinD1 viruses in Sf21 cells. The overexpressed protein was purified by Ni-NTA affinity pull down to >80% pure by Sizing HPLC.

[1] abbreviates: bound stated, read-out: IC50 values against CDK4.
Setting [2] is: 60 min, room temperature, read-out: IC50 against CDK4 kinase.

Like-named read-outs stand apart in the source and are kept apart here.

Chain of CDK4/cyclin D1 (P11802 whole entry): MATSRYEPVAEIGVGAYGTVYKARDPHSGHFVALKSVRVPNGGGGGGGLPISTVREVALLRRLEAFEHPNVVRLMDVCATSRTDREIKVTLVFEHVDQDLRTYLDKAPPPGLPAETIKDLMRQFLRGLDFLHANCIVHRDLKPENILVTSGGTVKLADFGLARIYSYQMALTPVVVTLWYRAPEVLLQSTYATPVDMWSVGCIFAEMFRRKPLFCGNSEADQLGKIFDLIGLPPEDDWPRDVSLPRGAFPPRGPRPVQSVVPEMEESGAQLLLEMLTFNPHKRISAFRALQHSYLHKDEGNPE
Chain of CDK4/cyclin D1 (P24385 whole entry partner): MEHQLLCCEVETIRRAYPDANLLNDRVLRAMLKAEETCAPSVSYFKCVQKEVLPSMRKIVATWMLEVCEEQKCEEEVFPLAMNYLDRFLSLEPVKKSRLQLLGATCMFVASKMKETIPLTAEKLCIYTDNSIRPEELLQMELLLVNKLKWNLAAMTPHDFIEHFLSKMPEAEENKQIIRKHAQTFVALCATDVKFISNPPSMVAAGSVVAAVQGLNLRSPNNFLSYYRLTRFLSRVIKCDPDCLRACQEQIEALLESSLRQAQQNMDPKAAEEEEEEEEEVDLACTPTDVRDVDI

In the case of `COc1cccc(F)c1-c1cc(C(=O)c2nc3ccc(N4CCN(C)CC4)cc3[nH]2)ccn1` [Example 49, [2-(2-Fluoro-6-methoxy-phenyl)-pyridin-4-yl]-[6-(4-methyl-piperazin-1-yl)-1H-benzoimidazol-2-yl]-methanone], under setting [1], the IC50 was under 10000 nM.

Regarding `COc1cccc(F)c1-c1cc(C(=O)c2nc3ccc(N4CCC(N(C)C)CC4)cc3[nH]2)ccn1` [Example 50, [6-(4-Dimethylamino-piperidin-1-yl)-1H-benzoimidazol-2-yl]-[2-(2-fluoro-6-methoxy-phenyl)-pyridin-4-yl]-methanone], the 50% inhibitory concentration (IC50) under setting [1] is under 10000 nM.

For `COc1ccc(F)c(F)c1-c1cc(C(=O)c2ncc[nH]2)ccn1` [Example 66, [2-(2,3-Difluoro-6-methoxy-phenyl)-pyridin-4-yl]-(1H-imidazol-2-yl)-methanone], the IC50 under setting [1] is under 10000 nM.

Turning to `COc1cccc(F)c1-c1cc(C(=O)c2nc3cc(CN4CCOCC4)ccc3[nH]2)ccn1` [Example 73, [2-(2-Fluoro-6-methoxy-phenyl)-pyridin-4-yl]-(5-morpholin-4-ylmethyl-1H-benzoimidazol-2-yl)-methanone], the IC50 under setting [1] is under 10000 nM.

For `CN(C)Cc1cccc2[nH]c(C(=O)c3ccnc(-c4cncc5ccccc45)c3)nc12` [Example 79A, (4-Dimethylaminomethyl-1H-benzoimidazol-2-yl)-(2-isoquinolin-4-yl-pyridin-4-yl)-methanone], the IC50 under setting [1] was under 10000 nM.

`COc1ccc(F)c(F)c1-c1cc(C(=O)c2nc3c(CN(C)C)cccc3[nH]2)ccn1` [Example 79B, [2-(2,3-Difluoro-6-methoxy-phenyl)-pyridin-4-yl]-(4-dimethylaminomethyl-1H-benzoimidazol-2-yl)-methanone]: the IC50 under setting [1] was under 10000 nM.

As to `CN(C)Cc1ccc2nc(C(=O)c3ccnc(-c4cncc5ccccc45)c3)[nH]c2c1` [Example 84, (6-Dimethylaminomethyl-1H-benzoimidazol-2-yl)-(2-isoquinolin-4-yl-pyridin-4-yl)-methanone], the half-inhibitory concentration (IC50) under setting [2] stood at 57 nM.

On to `CN1CCN(Cc2ccc3[nH]c(C(=O)c4ccnc(-c5cncc6ccccc56)c4)nc3c2)CC1` [Example 86, (2-Isoquinolin-4-yl-pyridin-4-yl)-[5-(4-methyl-piperazin-1-ylmethyl)-1H-benzoimidazol-2-yl]-methanone], for which, under setting [2], the half-maximal inhibitory concentration (IC50) is 27 nM.

With `CN(C)C1CCN(c2ccc3[nH]c(C(=O)c4ccnc(-c5cncc6ccccc56)c4)nc3c2)CC1` [Example 89, [5-(4-Dimethylamino-piperidin-1-yl)-1H-benzoimidazol-2-yl]-(2-isoquinolin-4-yl-pyridin-4-yl)-methanone], the IC50 under setting [2] came to 4 nM.

With `O=C(c1ccnc(-c2cncc3ccccc23)c1)c1nc2cc(OCC(O)CO)ccc2[nH]1` (stereo not shown) [Example 98, [5-(2,3-Dihydroxy-propoxy)-1H-benzoimidazol-2-yl]-(2-isoquinolin-4-yl-pyridin-4-yl)-methanone], the IC50 under setting [2] is 33 nM and the IC50 under setting [1] is under 10000 nM.

Take `CN1CCC(NC(=O)c2ccc3nc(C(=O)c4ccnc(-c5cncc6ccccc56)c4)[nH]c3c2)CC1` [Example 99, 2-(2-Isoquinolin-4-yl-pyridine-4-carbonyl)-3H-benzoimidazole-5-carboxylic acid (1-methyl-piperidin-4-yl)-amide]: the IC50 was 26 nM under setting [2] and under 10000 nM under setting [1].

In the case of `CCNCc1cncc(-c2cc(C(=O)c3nc4cc(OC)c(OC)cc4[nH]3)ccc2C#N)c1` [Example 101, 4-(5,6-Dimethoxy-1H-benzoimidazole-2-carbonyl)-2-(5-ethylaminomethyl-pyridin-3-yl)-benzonitrile], the IC50 under setting [1] is under 10000 nM.

On to `COc1ccc(F)c(F)c1-c1cc(C(=O)c2nc3cc(N4CCC(N(C)C)CC4)ccc3[nH]2)ccn1` [Example 103, [2-(2,3-Difluoro-6-methoxy-phenyl)-pyridin-4-yl]-[5-(4-dimethylamino-piperidin-1-yl)-1H-benzoimidazol-2-yl]-methanone], for which the IC50 reads like this: under setting [2], 60 nM; under setting [1], under 10000 nM.
